ChEMBL document CHEMBL1201862, “PubChem BioAssay data set” (2004)
Activity calls are given as the source filed them.

Key:
[1] = biological target: Steroidogenic factor 1 (Homo sapiens, UniProt Q13285); test: Counterscreen for inverse agonists of the liver receptor homolog-1 (LRH-1; NR5A2): Luminescence-based cell-based high throughput dose response assay to identify inverse agonists of the Steroidogenic Factor 1 Nuclear Receptor (SF1; NR5A1).; type: functional
[2] = StAR promoter reporter inhibition counter-screen, dose response, counter-screen for LRH-1 inverse agonist project, cell-based, luminescence, luciferase reporter (AID 651969); type: functional
[3] = biological target: Nuclear receptor subfamily 5 group A member 2 (Homo sapiens, UniProt O00482); type: functional, cell-based;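 further: HEK293T cells transfected with LRH-1 and a StAR promoter luciferase reporter; potency for inhibitors that lower LRH-1 driven reporter light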
Nuclear receptor subfamily 5 group A member 2, sequence (O00482 whole entry): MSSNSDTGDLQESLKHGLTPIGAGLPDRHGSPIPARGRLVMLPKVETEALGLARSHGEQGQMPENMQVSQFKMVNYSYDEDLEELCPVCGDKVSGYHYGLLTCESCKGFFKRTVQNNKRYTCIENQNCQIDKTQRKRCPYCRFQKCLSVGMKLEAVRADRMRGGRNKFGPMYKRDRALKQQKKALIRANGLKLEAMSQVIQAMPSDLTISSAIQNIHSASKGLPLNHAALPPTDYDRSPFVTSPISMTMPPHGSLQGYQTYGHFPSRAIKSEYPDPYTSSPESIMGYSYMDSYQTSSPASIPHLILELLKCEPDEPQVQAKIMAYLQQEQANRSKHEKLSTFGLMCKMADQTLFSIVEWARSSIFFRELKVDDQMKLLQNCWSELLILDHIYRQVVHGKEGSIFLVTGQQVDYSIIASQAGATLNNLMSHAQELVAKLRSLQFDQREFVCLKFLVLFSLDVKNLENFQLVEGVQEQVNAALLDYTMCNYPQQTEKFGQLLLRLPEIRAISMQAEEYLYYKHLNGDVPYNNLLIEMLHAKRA

[4] = biological target: T1, Leucine aminopeptidase (Plasmodium falciparum 3D7, UniProt Q8IL11); test: P. falciparum M17LAP inhibitors, primary screen, biochemical, fluorogenic H-Leu-NHMec substrate, 1536-well (AID 1619); type: functional
T1 sequence (Q8IL11 whole entry): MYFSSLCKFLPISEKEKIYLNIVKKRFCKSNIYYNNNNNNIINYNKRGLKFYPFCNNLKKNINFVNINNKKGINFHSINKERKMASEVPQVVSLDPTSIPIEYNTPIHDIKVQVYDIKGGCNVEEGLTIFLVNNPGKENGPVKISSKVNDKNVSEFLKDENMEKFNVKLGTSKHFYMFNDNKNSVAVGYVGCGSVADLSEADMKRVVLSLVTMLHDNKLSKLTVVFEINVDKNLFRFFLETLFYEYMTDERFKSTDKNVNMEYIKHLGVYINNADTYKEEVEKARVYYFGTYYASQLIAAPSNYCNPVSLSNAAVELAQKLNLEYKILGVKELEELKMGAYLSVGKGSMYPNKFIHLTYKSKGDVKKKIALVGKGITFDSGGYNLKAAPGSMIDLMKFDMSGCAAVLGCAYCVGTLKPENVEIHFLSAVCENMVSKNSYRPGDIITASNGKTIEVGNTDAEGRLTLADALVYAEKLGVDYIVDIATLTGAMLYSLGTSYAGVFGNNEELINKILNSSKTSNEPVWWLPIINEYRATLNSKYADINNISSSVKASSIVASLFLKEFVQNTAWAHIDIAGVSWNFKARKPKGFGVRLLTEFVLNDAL

[5] = biological target: T2, Corticotropin-releasing factor receptor 2/Corticotropin-releasing factor-binding protein (Homo sapiens, UniProt P24387+Q13324); test: Dose Response confirmation of uHTS hits for small molecule antagonists of the CRF-binding protein and CRF-R2 receptor complex.; type: functional; details: read-out: IC50_Mean
T2 sequence (Q13324 whole entry): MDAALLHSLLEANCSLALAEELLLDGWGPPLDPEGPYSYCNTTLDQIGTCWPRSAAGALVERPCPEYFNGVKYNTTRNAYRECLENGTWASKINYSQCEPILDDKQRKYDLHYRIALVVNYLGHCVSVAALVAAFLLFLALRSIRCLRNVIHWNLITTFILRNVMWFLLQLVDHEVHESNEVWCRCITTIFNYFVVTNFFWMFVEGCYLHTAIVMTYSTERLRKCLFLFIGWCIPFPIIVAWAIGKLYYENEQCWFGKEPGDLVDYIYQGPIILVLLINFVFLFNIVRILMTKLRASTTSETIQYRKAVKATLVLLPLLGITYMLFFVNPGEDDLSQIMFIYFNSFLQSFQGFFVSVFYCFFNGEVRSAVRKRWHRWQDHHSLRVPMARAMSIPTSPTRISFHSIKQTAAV
T2 sequence (P24387 whole entry): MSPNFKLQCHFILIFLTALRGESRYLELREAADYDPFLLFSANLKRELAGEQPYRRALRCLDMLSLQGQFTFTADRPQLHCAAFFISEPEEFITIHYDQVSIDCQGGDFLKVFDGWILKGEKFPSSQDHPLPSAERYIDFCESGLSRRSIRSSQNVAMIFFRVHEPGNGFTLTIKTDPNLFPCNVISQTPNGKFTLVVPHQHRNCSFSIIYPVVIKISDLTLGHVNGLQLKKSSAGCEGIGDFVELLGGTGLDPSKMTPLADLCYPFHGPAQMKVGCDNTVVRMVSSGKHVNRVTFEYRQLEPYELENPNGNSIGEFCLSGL

[6] = biological target: T2, Corticotropin-releasing factor receptor 2/Corticotropin-releasing factor-binding protein; test: activators of CRF receptor 2 with binding protein – uHTS hits, confirmation (AID 602473); type: functional; details: read-out: EC50_Mean
[7] = biological target: T3, Low molecular weight phosphotyrosine protein phosphatase (Homo sapiens, UniProt P24666); type: functional; details: read-out: IC50_Mean
T3 sequence (P24666 whole entry): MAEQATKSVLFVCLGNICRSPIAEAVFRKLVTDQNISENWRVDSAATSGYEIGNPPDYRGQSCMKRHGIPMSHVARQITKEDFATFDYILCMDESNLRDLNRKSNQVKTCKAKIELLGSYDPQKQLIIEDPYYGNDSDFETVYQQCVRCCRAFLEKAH

[8] = biological target: T4, Tyrosine-protein phosphatase non-receptor type 22 (Homo sapiens, UniProt Q9Y2R2); test: LYP phosphatase inhibition for selectivity, dose response, selectivity assay for LMPTP inhibitor project, biochemical, fluorescence, LYP catalytic domain (AID 652006); type: functional; details: read-out: IC50_Mean
T4 sequence (Q9Y2R2 whole entry): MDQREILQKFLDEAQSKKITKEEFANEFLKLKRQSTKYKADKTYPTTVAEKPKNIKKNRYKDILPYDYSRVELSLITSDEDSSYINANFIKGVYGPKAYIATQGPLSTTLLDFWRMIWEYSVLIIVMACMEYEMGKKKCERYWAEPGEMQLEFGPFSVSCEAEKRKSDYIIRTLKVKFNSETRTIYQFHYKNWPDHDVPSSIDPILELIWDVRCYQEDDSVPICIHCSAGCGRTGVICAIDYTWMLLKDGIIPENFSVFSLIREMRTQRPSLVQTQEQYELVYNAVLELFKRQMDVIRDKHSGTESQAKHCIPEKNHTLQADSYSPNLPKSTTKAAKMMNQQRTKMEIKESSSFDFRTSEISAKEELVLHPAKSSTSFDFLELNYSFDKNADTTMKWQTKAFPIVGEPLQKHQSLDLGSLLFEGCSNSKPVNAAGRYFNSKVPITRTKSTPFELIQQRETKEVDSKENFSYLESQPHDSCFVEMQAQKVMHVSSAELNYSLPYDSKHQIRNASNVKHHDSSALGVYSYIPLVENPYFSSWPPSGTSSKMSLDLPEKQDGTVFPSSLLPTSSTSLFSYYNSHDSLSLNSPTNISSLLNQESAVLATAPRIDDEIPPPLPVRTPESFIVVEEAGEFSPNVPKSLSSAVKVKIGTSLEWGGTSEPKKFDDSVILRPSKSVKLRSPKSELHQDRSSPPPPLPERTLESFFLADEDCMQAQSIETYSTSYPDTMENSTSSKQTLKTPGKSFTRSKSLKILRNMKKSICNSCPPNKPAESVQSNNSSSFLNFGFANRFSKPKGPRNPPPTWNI

[9] = biological target: Beta-lactamase (Pseudomonas aeruginosa, UniProt Q79MP6);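 further: biochemical dose-response test of metallo-beta-lactamase enzyme inhibition, read out by epi-absorbance; purified recombinant IMP-1 metallo-beta-lactamase with nitrocefin as substrate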
Beta-lactamase (Pseudomonas aeruginosa, UniProt Q79MP6), sequence (Q79MP6 whole entry, the tested form may be a part): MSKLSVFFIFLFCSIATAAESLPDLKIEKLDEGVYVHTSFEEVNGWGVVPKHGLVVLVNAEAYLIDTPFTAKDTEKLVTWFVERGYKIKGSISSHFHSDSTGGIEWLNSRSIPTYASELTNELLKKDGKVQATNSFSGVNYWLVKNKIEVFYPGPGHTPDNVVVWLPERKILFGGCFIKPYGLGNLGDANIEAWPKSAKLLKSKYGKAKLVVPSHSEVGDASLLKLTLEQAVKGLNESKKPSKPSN

[10] = biological target: T5, Carboxy-terminal domain RNA polymerase II polypeptide A small phosphatase 1 (Homo sapiens, UniProt Q9GZU7); test: inhibitors of CTDSP1, concentration-response testing, biochemical assay, absorbance-based, actives from ultra-high-throughput screening (AID 540297); type: functional
T5 sequence (Q9GZU7 whole entry): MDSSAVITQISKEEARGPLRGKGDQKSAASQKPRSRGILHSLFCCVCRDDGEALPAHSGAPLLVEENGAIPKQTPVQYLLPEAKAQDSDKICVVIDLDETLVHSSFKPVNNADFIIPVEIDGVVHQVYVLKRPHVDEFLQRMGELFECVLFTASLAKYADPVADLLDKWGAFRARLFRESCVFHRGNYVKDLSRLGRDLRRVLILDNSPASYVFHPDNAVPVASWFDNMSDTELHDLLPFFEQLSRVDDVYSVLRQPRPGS

[11] = tested on: H9c2; test: cells; type: functional, cell-based; details: Rattus norvegicus, H9c2, Myocardium;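 further: confirmatory concentration-response retest of ultra-high-throughput screening hits for modulation of myocardial damage; cell death induced by hydrogen peroxide oxidative stress; compound pretreatment for 60 min then peroxide exposure for 2 h; potency is for protecting the cells against peroxide damage rather than for killing them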
[12] = biological target: Beta-lactamase (Salmonella choleraesuis (strain SC-B67), UniProt Q5J463)
Beta-lactamase (Salmonella choleraesuis (strain SC-B67), UniProt Q5J463), sequence (Q5J463 whole entry): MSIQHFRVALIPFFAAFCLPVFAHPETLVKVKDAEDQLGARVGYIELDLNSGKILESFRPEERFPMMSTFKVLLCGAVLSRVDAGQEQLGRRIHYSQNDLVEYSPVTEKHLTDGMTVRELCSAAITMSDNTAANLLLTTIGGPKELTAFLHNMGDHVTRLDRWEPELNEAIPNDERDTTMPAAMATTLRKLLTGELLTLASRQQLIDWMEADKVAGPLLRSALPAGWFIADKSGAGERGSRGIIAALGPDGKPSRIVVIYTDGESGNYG

[13] = biological target: T3, Low molecular weight phosphotyrosine protein phosphatase; type: functional; details: read-out: IC50_Mean; remark: listed apart in the source
[14] = biological target: T6, Probable nicotinate-nucleotide adenylyltransferase (Staphylococcus aureus (strain N315), UniProt P65502); type: functional, Staphylococcus aureus subsp. aureus N315; details: read-out: IC50_Mean;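 on IC50 Mean: confirmatory dose-response retesting of NadD inhibitor hits first found in an ultra-high-throughput screen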
T6 sequence (P65502 whole entry): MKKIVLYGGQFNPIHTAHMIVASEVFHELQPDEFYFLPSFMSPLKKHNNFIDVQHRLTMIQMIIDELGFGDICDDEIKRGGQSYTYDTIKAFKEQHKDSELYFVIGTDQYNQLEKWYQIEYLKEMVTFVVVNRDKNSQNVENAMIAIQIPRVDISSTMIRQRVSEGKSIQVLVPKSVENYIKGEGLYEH

[15] = biological target: Genome polyprotein (dengue virus type 2, UniProt P29990); test: Dengue-2 NS5 methyltransferase inhibitors, primary screen, biochemical, confirmation dose response (AID 588689); type: functional
Genome polyprotein, sequence (P29990 2492-3391 limits assumed): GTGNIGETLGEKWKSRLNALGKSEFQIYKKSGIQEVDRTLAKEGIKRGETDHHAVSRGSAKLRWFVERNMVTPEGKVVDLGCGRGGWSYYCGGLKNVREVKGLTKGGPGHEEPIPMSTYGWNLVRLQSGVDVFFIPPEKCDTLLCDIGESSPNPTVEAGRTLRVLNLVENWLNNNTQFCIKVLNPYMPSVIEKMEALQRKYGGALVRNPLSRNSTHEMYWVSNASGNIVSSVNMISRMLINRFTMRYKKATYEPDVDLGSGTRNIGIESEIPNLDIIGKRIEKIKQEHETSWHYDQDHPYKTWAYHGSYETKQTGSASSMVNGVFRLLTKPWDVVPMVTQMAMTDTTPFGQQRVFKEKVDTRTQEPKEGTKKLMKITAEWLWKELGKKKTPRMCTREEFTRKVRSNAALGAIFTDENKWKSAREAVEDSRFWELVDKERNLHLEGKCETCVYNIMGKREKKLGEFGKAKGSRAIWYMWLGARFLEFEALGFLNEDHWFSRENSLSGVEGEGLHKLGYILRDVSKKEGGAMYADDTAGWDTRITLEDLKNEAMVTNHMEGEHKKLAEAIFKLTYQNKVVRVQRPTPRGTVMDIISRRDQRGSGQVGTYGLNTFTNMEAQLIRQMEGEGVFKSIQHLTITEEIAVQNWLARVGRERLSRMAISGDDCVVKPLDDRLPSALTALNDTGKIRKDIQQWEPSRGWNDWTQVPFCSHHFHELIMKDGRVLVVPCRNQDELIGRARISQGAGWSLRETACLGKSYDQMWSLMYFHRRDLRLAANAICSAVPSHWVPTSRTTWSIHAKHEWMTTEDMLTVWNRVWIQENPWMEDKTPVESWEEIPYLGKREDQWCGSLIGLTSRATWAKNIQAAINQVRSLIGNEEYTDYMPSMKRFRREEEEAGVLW

[16] = biological target: T6, Probable nicotinate-nucleotide adenylyltransferase; type: functional, Staphylococcus aureus subsp. aureus N315
[17] = biological target: T7, SUMO-activating enzyme (Homo sapiens, UniProt Q9UBT2); test: inhibitors of in vitro SUMOylation cascade, primary screen, biochemical, HTRF, uHTS (AID 2006); type: protein-complex assay
T7 sequence (Q9UBE0 whole entry): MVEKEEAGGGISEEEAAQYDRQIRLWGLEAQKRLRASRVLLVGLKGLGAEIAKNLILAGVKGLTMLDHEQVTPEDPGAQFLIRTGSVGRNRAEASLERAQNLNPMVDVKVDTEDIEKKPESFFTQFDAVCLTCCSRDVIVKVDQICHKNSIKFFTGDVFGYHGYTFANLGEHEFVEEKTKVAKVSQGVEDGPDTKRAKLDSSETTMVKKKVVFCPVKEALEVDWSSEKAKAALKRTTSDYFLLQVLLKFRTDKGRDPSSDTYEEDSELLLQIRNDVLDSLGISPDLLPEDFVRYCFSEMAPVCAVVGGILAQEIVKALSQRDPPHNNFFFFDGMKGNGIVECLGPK
T7 sequence (Q9UBT2 whole entry): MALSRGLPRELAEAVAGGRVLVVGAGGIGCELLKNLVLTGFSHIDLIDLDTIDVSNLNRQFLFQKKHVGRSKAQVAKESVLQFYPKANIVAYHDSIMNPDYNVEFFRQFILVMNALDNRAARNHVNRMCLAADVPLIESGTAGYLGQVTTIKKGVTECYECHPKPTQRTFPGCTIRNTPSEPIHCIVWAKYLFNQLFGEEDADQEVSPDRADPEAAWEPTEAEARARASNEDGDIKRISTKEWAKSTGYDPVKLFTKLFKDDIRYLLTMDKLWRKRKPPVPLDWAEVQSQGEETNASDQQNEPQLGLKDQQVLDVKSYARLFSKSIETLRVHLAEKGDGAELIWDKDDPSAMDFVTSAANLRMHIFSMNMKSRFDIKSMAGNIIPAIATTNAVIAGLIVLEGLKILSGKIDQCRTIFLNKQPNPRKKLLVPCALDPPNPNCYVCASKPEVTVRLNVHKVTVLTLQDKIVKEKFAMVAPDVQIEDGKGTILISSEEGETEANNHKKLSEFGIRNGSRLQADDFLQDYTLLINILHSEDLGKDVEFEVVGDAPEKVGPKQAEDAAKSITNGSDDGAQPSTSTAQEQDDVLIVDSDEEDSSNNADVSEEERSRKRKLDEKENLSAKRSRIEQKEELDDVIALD

[18] = biological target: T7, SUMO-activating enzyme; test: SUMOylation inhibitor hit validation, confirmation, SUMOylation inhibitor project, biochemical, AlphaScreen (AID 2018); type: functional
[19] = growth suppression of beta-catenin-knockout colon cells, dose response, cell-based, HCT116, human colon tumor (AID 1045); type: functional;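 further: HCT116 colon tumor cells with beta catenin knocked out; cells exposed to compound for 60 hours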
[20] = biological target: Peroxisome proliferator-activated receptor gamma/Nuclear receptor coactivator 1 (Homo sapiens, UniProt P37231); type: functional;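 further: agonist potency as compounds enhance coactivator SRC-1 recruitment to PPARgamma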
[21] = biological target: Peroxisome proliferator-activated receptor gamma/Nuclear receptor coactivator 3 (Homo sapiens, UniProt P37231); type: functional;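 further: agonist potency for raising coactivator recruitment to the receptor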
[22] = growth suppression of PTEN-null colon cells, dose response, cell-based, HCT116 PTEN knockout (AID 1047); type: functional;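 further: HCT116 colon tumor cells with PTEN knocked out; cells exposed to compound for 60 hours before readout; potency for loss of cell viability measured by luminescence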
[23] = biological target: Peroxisome proliferator-activated receptor gamma/Nuclear receptor coactivator 2 (Homo sapiens, UniProt P37231); type: functional;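 further: agonist potency for raising coactivator recruitment to the receptor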

Steroidogenic factor 1, sequence (Q13285 whole entry): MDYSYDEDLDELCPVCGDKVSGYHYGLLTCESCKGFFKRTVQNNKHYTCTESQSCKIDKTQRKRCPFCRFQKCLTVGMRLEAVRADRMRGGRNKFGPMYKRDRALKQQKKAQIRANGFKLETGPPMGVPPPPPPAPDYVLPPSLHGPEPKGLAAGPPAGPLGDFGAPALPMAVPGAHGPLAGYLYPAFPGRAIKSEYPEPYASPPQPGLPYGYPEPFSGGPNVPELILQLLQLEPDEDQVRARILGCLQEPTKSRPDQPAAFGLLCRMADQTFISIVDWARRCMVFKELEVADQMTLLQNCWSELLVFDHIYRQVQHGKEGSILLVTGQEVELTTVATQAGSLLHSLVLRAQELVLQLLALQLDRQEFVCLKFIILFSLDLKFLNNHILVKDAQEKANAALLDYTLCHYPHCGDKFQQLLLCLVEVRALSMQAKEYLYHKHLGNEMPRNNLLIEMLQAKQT

O=[N+]([O-])c1ccc(N2CCN(S(=O)(=O)c3ccccc3)CC2)cc1NCc1cccnc1
IC50 [1]: 5.39 µM (active) | IC50 [2]: 35.9 µM (inactive) | IC50 [3]: 14.8 µM (inactive)

Cc1cccc(NC(=O)CSc2nc3n[nH]cc3c(=O)[nH]2)c1C
IC50 [1]: 2.59 µM (active) | IC50 [4]: 4.46 µM (active) | IC50 [5]: > 47.1 µM (inactive) | EC50 [6]: > 53 µM (inactive) | IC50 [3]: 6.29 µM (active)

O=C(Nc1ccc2oc(-c3ccccc3F)nc2c1)c1ccc([N+](=O)[O-])o1
IC50 [7]: 3.79 µM (active) | IC50 [8]: 7.64 µM (active) | IC50 [9]: > 59.6 µM (inactive) | IC50 [10]: 1.23 µM (active) | IC50 [11]: > 79 µM (inactive) | IC50 [12]: > 59.6 µM (inactive) | IC50 [13]: 3.72 µM (active)

CCOc1ccc(NS(=O)(=O)c2ccc(Cl)c(NN=C3C(=O)NC(=S)NC3=O)c2)cc1Br
IC50 [14]: 55 µM (active) | IC50 [15]: 44.1 µM (active) | IC50 [16]: 5.55 µM (active)

CCOC(=O)Cn1/c(=N/C(=O)c2sc3ccccc3c2Cl)sc2cc(S(N)(=O)=O)ccc21
IC50 [17]: 4.97 µM (active) | IC50 [7]: 16.4 µM (active) | IC50 [8]: 52.2 µM (inactive) | IC50 [10]: 2.06 µM (active) | IC50 [18]: 11.8 µM (active) | EC50 [19]: 46.4 µM (active) | EC50 [20]: 11.3 µM (not active) | EC50 [21]: 14.3 µM (not active) | EC50 [22]: 72.5 µM (active) | IC50 [13]: 27.7 µM (inactive) | EC50 [23]: 7.96 µM (active)
